According to ChEMBL document CHEMBL2380246, “Structure-activity relationships of hybrid annonaceous acetogenins: powerful growth inhibitory effects of their connecting groups between heterocycle and hydrophobic carbon chain bearing THF ring on human cancer cell lines” (2013):

Assays:
Type in all cases: functional
DU-145 = experiment: Growth inhibition of human DU145 cells after 48 hrs by sulforhodamine B assay; conditions: DU-145, 48 h
SK-OV-3 = experiment: Growth inhibition of human SKOV3 cells after 48 hrs by sulforhodamine B assay; conditions: SK-OV-3, 48 h
St-4 = experiment: Growth inhibition of human St-4 cells after 48 hrs by sulforhodamine B assay; conditions: St-4, 48 h
LOX IMVI = experiment: Growth inhibition of human LOXIMVI cells after 48 hrs by sulforhodamine B assay
[1] = Growth inhibition of human RXF631L cells after 48 hrs by sulforhodamine B assay; conditions: RXF 631, 48 h
A549 = experiment: Growth inhibition of human A549 cells after 48 hrs by sulforhodamine B assay; conditions: A549, 48 h
NCI-H23 = experiment: Growth inhibition of human NCI-H23 cells after 48 hrs by sulforhodamine B assay; conditions: NCI-H23, 48 h
[2] = Growth inhibition of human HCC2998 cells after 48 hrs by sulforhodamine B assay; conditions: HCC 2998, 48 h
DMS-273 = experiment: Growth inhibition of human DMS273 cells after 48 hrs by sulforhodamine B assay; conditions: DMS-273, 48 h
HT-29 = experiment: Growth inhibition of human HT-29 cells after 48 hrs by sulforhodamine B assay; conditions: HT-29, 48 h
[3] = Growth inhibition of human MKN1 cells after 48 hrs by sulforhodamine B assay; conditions: MKN-1, 48 h
OVCAR-5 = experiment: Growth inhibition of human OVCAR5 cells after 48 hrs by sulforhodamine B assay; conditions: OVCAR-5, 48 h
MKN-74 = experiment: Growth inhibition of human MKN74 cells after 48 hrs by sulforhodamine B assay; conditions: MKN-74, 48 h
HCT-116 = experiment: Growth inhibition of human HCT116 cells after 48 hrs by sulforhodamine B assay; conditions: HCT-116, 48 h
MDA-MB-231 = experiment: Growth inhibition of human MDA-MB-231 cells after 48 hrs by sulforhodamine B assay; conditions: MDA-MB-231, 48 h
OVCAR-4 = experiment: Growth inhibition of human OVCAR4 cells after 48 hrs by sulforhodamine B assay; conditions: OVCAR-4, 48 h
KM12 = experiment: Growth inhibition of human KM12 cells after 48 hrs by sulforhodamine B assay; conditions: KM12, 48 h
PC-3 = experiment: Growth inhibition of human PC3 cells after 48 hrs by sulforhodamine B assay; conditions: PC-3, 48 h
[4] = Growth inhibition of human HBC4 cells after 48 hrs by sulforhodamine B assay; conditions: HBC4, 48 h
HCT-15 = experiment: Growth inhibition of human HCT15 cells after 48 hrs by sulforhodamine B assay; conditions: HCT-15, 48 h
[5] = Growth inhibition of human HBC5 cells after 48 hrs by sulforhodamine B assay; conditions: HBC5, 48 h
OVCAR-8 = experiment: Growth inhibition of human OVCAR8 cells after 48 hrs by sulforhodamine B assay; conditions: OVCAR-8, 48 h
SF-295 = experiment: Growth inhibition of human SF295 cells after 48 hrs by sulforhodamine B assay; conditions: SF-295, 48 h
ACHN = experiment: Growth inhibition of human ACHN cells after 48 hrs by sulforhodamine B assay
SNB-75 = experiment: Growth inhibition of human SNB75 cells after 48 hrs by sulforhodamine B assay; conditions: SNB-75, 48 h
OVCAR-3 = experiment: Growth inhibition of human OVCAR3 cells after 48 hrs by sulforhodamine B assay; conditions: OVCAR-3, 48 h
SF-268 = experiment: Growth inhibition of human SF268 cells after 48 hrs by sulforhodamine B assay; conditions: SF-268, 48 h
MKN-45 = experiment: Growth inhibition of human MKN45 cells after 48 hrs by sulforhodamine B assay; conditions: MKN-45, 48 h
DMS-114 = experiment: Growth inhibition of human DMS114 cells after 48 hrs by sulforhodamine B assay; conditions: DMS-114, 48 h
NCI-H460 = experiment: Growth inhibition of human NCI-H460 cells after 48 hrs by sulforhodamine B assay; conditions: NCI-H460, 48 h
NCI-H226 = experiment: Growth inhibition of human NCI-H226 cells after 48 hrs by sulforhodamine B assay; conditions: NCI-H226, 48 h
MKN-28 = experiment: Growth inhibition of human MKN28 cells after 48 hrs by sulforhodamine B assay; conditions: MKN-28, 48 h
MCF7 = experiment: Growth inhibition of human MCF7 cells after 48 hrs by sulforhodamine B assay; conditions: MCF7, 48 h
U-251 = experiment: Growth inhibition of human U251 cells after 48 hrs by sulforhodamine B assay; conditions: U-251, 48 h
MKN-7 = experiment: Growth inhibition of human MKN7 cells after 48 hrs by sulforhodamine B assay; conditions: MKN-7, 48 h
SNB-78 = experiment: Growth inhibition of human SNB78 cells after 48 hrs by sulforhodamine B assay; conditions: SNB-78, 48 h
NCI-H522 = experiment: Growth inhibition of human NCI-H522 cells after 48 hrs by sulforhodamine B assay; conditions: NCI-H522, 48 h
[6] = Growth inhibition of human BSY1 cells after 48 hrs by sulforhodamine B assay; conditions: BSY-1, 48 h
SF-539 = experiment: Growth inhibition of human SF539 cells after 48 hrs by sulforhodamine B assay; conditions: SF-539, 48 h

## CCCCCCCCCCCC[C@@H](O)[C@H]1CC[C@H]([C@H](O)CCCCCCCCCCCCc2ccnn2C)O1
DU-145
  GI50: > 100 µM
SK-OV-3
  GI50: 77.6 µM
St-4
  GI50: 64.6 µM
LOX IMVI
  GI50: > 100 µM
[1]
  GI50: > 100 µM
A549
  GI50: 30.9 µM
NCI-H23
  GI50: 0.912 µM
[2]
  GI50: 79.4 µM
DMS-273
  GI50: 49 µM
HT-29
  GI50: 75.9 µM
[3]
  GI50: > 100 µM
OVCAR-5
  GI50: > 100 µM
MKN-74
  GI50: 22.9 µM
HCT-116
  GI50: 9.12 µM
MDA-MB-231
  GI50: 32.4 µM
OVCAR-4
  GI50: 37.2 µM
KM12
  GI50: 70.8 µM
PC-3
  GI50: > 100 µM
[4]
  GI50: > 100 µM
HCT-15
  GI50: > 100 µM
[5]
  GI50: 69.2 µM
OVCAR-8
  GI50: > 100 µM
SF-295
  GI50: 24 µM
ACHN
  GI50: 87.1 µM
SNB-75
  GI50: > 100 µM
OVCAR-3
  GI50: > 100 µM
SF-268
  GI50: > 100 µM
MKN-45
  GI50: > 100 µM
DMS-114
  GI50: 0.55 µM
NCI-H460
  GI50: > 100 µM
NCI-H226
  GI50: 52.5 µM
MKN-28
  GI50: 4.37 µM
MCF7
  GI50: 26.9 µM
U-251
  GI50: > 100 µM
MKN-7
  GI50: 6.17 µM
SNB-78
  GI50: > 100 µM
NCI-H522
  GI50: 3.8 µM
[6]
  GI50: 32.4 µM
SF-539
  GI50: 37.2 µM
